Measurements reported in US20120065173A1 (priority 2006, published 2012).

Molecular target: T1, recombinant human GR (Homo sapiens, UniProt P04150)
T1 construct: purchased Panvera/Invitrogen P2812 (kit P2893)
T1 sequence (P04150 1-777): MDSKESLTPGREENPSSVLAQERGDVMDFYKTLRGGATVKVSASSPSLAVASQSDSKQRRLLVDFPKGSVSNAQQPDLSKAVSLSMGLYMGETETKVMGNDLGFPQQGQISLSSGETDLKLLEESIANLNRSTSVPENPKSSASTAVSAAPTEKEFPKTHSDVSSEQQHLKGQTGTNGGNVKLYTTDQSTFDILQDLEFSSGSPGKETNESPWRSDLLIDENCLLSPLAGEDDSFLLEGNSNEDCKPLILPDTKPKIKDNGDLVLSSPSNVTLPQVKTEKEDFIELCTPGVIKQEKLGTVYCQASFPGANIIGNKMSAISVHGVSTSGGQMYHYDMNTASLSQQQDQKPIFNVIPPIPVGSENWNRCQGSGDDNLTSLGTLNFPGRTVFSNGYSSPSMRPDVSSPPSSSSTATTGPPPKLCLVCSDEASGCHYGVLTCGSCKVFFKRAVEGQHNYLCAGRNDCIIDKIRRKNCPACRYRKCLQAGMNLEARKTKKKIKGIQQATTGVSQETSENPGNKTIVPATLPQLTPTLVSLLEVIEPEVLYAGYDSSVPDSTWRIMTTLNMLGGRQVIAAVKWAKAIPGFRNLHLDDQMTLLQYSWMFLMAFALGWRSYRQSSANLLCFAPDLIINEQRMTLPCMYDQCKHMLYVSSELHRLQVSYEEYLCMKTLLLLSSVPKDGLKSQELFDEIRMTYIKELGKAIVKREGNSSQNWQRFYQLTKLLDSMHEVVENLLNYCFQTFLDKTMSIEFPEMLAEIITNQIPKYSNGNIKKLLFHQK
Assay: Human Glucocorticoid Receptor (GR) Assay, fluorescence polarization (GRhuFL_FP_v2)
Type: binding
Conditions: GS Red tracer, 2 hours at room temperature, 100% control 10 μM Dexamethasone
Experimental: Human Glucocorticoid Receptor (GR) Assay
The assay is based on a commercial kit from Panvera/Invitrogen (Part number P2893). The assay technology is fluorescence polarization. […] The GR and Stabilizing Peptide reagents are stored at −70° C. while the GS Red is stored at −20° C. Also included in the kit are 1M DTT (Panvera, Part number P2325, stored at −20° C.) and GR Screening buffer 10× (Panvera, Part number P2814, stored at −70° C. initially but once thawed stored at room temperature). Avoid repeated freeze/thaws for all reagents. The GR Screening buffer 10× comprises 100 mM potassium phosphate, 200 mM sodium molybdate, 1 mM EDTA and 20% DMSO.
0% control was 100% DMSO and 100% control was 10 μM Dexamethasone. Background solution (8 μL; assay buffer 10×, Stabilizing Peptide, DTT and ice cold MQ water) was added to the background wells. GS Red solution (7 μL; assay buffer 10×, Stabilizing Peptide, DTT, GS Red and ice cold water) was added to all wells except background wells. GR solution (7 μL; assay buffer 10×, Stabilizing Peptide, DTT, GR and ice cold water) was added to all wells. The plate was sealed and incubated in a dark at room temperature for 2 hours.

CC(C)n1ncc2cc(O[C@H](c3ccccc3)[C@H](C)NS(=O)(=O)C3CC3)ccc21 [Example 33, N-[(1R,2S)-1-phenyl-1-(1-propan-2-ylindazol-5-yl)oxy-propan-2-yl]cyclopropanesulfonamide]
IC50: 0.17 µM

C[C@H](NS(=O)(=O)C1CC1)[C@H](Oc1cccc2c1cnn2-c1ccc(F)cc1)c1ccccc1 [Example 3, N-[(1R,2S)-1-[1-(4-fluorophenyl)indazol-4-yl]oxy-1-phenyl-propan-2-yl]cyclopropanesulfonamide]
IC50: 0.09 µM
